Results taken from US20260217693A1, “SRPK1 INHIBITORS AND METHODS OF USE” (ALLIANTHERA (SUZHOU) BIOPHARMACEUTICAL CO., LTD., priority 2023, published 2026).

Target: SRPK1 (Homo sapiens, UniProt Q96SB4)
Test: SRPK1 assay, Method 1 (ADP-Glo luminescence)
Assay type: biochemical
Settings: Method 1 (no asterisk): substrate Human SRSF1/SF2, 25° C. for 90 min, test compounds 30 μM top, 3-fold, duplicate
Procedure: The SPRK1 assay was performed as follows:
Method 1: The assay buffer was prepared. The reference compound was diluted to 10 mM. The test compounds were prepared at a concentration of 30 mM. Fifteen nL of compounds/DMSO were transferred to a multi-well plate. Then, 7.5 ul enzyme SRPK1 was added to each well, the plate was spun down at 1000 rpm and centrifuged for 30 sec. Then, 7.5 ul substrate Human SRSF1/SF2 was added to each well, the plate spun down at 1000 rpm and centrifuged for 30 sec. The plate was then incubated at 25° C. for 90 min. After 90 min, 5 μl of ADP-Glo™ Reagent was added to each well and the plate incubated at room temperature for 60 minutes. Then, 10 μl of Kinase Detection Reagent was added to each well and the plate incubate at room temperature for 60 minutes. The luminescence of each well was recorded on Envision. The test compounds were at 30 μM top, 3-fold, in duplicate, and the final concentration of DMSO was 0.1%.
All assays were performed using Method 1, except where indicated with an asterisk (*) in the below table, indicating Method 2 was used.

Sequence of SRPK1 (Q96SB4 whole entry): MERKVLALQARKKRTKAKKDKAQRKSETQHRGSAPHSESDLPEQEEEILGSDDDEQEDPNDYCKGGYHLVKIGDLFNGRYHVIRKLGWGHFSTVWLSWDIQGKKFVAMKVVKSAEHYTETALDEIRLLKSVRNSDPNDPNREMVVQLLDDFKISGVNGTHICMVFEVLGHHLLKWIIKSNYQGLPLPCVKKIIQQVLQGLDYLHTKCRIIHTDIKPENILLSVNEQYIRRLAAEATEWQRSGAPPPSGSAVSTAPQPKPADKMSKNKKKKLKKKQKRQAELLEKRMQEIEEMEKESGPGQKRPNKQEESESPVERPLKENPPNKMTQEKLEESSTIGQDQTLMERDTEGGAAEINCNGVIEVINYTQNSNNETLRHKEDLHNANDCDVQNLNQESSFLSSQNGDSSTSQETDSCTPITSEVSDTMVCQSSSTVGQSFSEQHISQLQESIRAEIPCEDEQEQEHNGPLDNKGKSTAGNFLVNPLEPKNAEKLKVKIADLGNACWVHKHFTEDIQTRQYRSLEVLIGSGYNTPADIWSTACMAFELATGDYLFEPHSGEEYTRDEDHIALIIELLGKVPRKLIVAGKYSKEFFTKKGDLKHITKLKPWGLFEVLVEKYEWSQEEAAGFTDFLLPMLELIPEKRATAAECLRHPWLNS

Row | Structure (SMILES) | IC50
1 | O=C(Nc1cc(C(F)(F)F)cnc1N1CCC(O)CC1)c1ccc(-c2nc[nH]n2)o1 [Compound 105] | 1530 nM
2 | O=C(Nc1cc(C(F)(F)F)cnc1N1CCC(O)CC1)c1ccc(-c2cccnc2)o1 [Compound 056] | 23.5 nM
3 | CC1(C(=O)O)CCN(c2ncc(C(F)(F)F)cc2NC(=O)c2ccc(C3CCOCC3)o2)CC1 [Compound 044] | 154 nM
4 | O=C(Nc1cc(C(F)(F)F)cnc1N1CCC(O)C1)c1ccc(C2CCOCC2)o1 (stereo not shown) [Compound 035] | > 30000 nM
5 | C[C@@H]1C[C@H](O)CCN1c1ncc(C(F)(F)F)cc1NC(=O)c1ccc(-c2cn[nH]c2)o1 [Compound 110] | 16.1 nM
6 | O=C(O)c1ccc(C(=O)Nc2cc(C(F)(F)F)cnc2N2CCC(O)CC2)o1 [Compound 098] | 871 nM
7 | O=C(Nc1cc(C(F)(F)F)cnc1-c1cn[nH]c1)c1ccc(-c2ccncc2)o1 [Compound 014] | > 30000 nM
8 | O=C(Nc1cc(C(F)(F)F)cnc1N1CCC(O)CC1)c1ccc(-c2cn[nH]n2)o1 [Compound 108] | 14.8 nM
9 | CC1(O)CCN(c2ncc(C(F)(F)F)cc2NC(=O)c2ccc(-c3ccncc3)o2)CC1 [Compound 026] | 358 nM
10 | O=C(Nc1cc(C(F)(F)F)cnc1N1CC(O)C1)c1ccc(C2CCOCC2)o1 [Compound 039] | > 30000 nM
11 | O=C(Nc1cc(C(F)(F)F)cnc1-c1ccccc1)c1ccc(C2CCOCC2)o1 [Compound 008] | > 30000 nM
12 | C[C@@H]1C[C@H](O)CCN1c1ncc(C2CC2)cc1NC(=O)c1ccc(-c2ccnc(N)c2)o1 [Compound 128] | > 30000 nM
13 | O=C(Nc1cc(C2CC2)cnc1N1CCC(O)CC1)c1ccc(-c2ccnc(F)c2)o1 [Compound 023] | 55.1 nM
14 | O=C(Nc1cc(C(F)(F)F)cnc1N1CCN(Cc2ccccn2)CC1)c1ccc(C2CCOCC2)o1 [Compound 002, N-(2-(4-(pyridin-2-ylmethyl)piperazin-1-yl)-5-(trifluoromethyl)pyridin-3-yl)-5-(tetrahydro-2H-pyran-4-yl) furan-2-carboxamide] | 309 nM
15 | O=C(Nc1cc(C(F)(F)F)cnc1N1CCC(O)CC1)c1ccc(-c2ccnc(O)c2)o1 [Compound 021] | 13.5 nM
16 | O=C(Nc1cc(C(F)(F)F)cnc1N1CCc2[nH]ncc2C1)c1ccc(-c2cn[nH]c2)o1 [Compound 123] | > 30000 nM
17 | Nc1cc(-c2ccc(C(=O)Nc3cc(C4CC4)cnc3N3CCc4[nH]ncc4C3)o2)cc(N)n1 [Compound 131] | > 30000 nM
18 | CN(C)C(=O)C1CCN(c2ncc(C(F)(F)F)cc2NC(=O)c2ccc(C3CCOCC3)o2)CC1 [Compound 040] | 193 nM
19 | CC(=O)OC1CCN(c2ncc(C(F)(F)F)cc2NC(=O)c2ccc(C(F)(F)F)cn2)CC1 [Compound 068] | > 30000 nM
20 | O=C(Nc1cc(C(F)(F)F)cnc1N1CCC2(CCNC2=O)CC1)c1ccc(C2CCOCC2)o1 [Compound 073] | 59.3 nM
21 | CC1(O)CCN(c2ncc(Cl)cc2NC(=O)c2ccc(C3CCOCC3)o2)CC1 [Compound 025] | 170 nM
22 | CC1(O)CCN(c2ncc(C3CC3)cc2NC(=O)c2ccc(C3CCOCC3)o2)CC1 [Compound 137, N-(5-Cyclopropyl-2-(4-hydroxy-4-methylpiperidin-1-yl)pyridin-3-yl)-5-(tetrahydro-2H-pyran-4-yl) furan-2-carboxamide] | 210 nM
23 | CN1CCN(c2ncc(C(F)(F)F)cc2NC(=O)c2ccc(-c3ccncc3)o2)CC1 [Compound 003] | 971 nM

Row | Structure (SMILES) | IC50
24 | C[C@@H]1C[C@@H](O)CCN1c1ncc(C2CC2)cc1NC(=O)c1ccc(Br)o1 [Compound 116] | > 30000 nM
25 | C[C@@H]1C[C@@H](O)CCN1c1ncc(C2CC2)cc1NC(=O)c1ccc(-c2ccnc(N)c2)o1 [Compound 119] | > 30000 nM
26 | O=C(Nc1cc(C(F)(F)F)cnc1-c1ccncc1)c1ccc(C2CCOCC2)o1 [Compound 010] | 8240 nM
27 | C[C@@H]1C[C@@H](O)CCN1c1ncc(C(F)(F)F)cc1NC(=O)c1ccc(-c2cc(N)nc(N)c2)o1 [Compound 132] | > 30000 nM
28 | O=C(Nc1cc(C(F)(F)F)cnc1C1CCNCC1)c1ccc(C2CCOCC2)o1 [Compound 062] | > 30000 nM
29 | O=C1CCC2(CCN(c3ncc(C(F)(F)F)cc3NC(=O)c3ccc(C4CCOCC4)o3)CC2)N1 [Compound 081] | 215 nM
30 | CN1CCC(c2ccc(C(=O)Nc3cc(C(F)(F)F)cnc3N3CCC(O)CC3)o2)CC1 [Compound 066, N-[2-(4-hydroxy-1-piperidyl)-5-(trifluoromethyl)-3-pyridyl]-5-(1-methyl-4-piperidyl) furan-2-carboxamide] | > 30000 nM
31 | Nc1cc(-c2ccc(C(=O)Nc3cc(C(F)(F)F)cnc3N3CCc4[nH]ncc4C3)o2)ccn1 [Compound 124] | > 30000 nM
32 | O=C(Nc1cc(C(F)(F)F)cnc1N1CCC(F)(F)CC1)c1ccc(-c2ccncc2)o1 [Compound 070] | 4640 nM
33 | C[C@@H]1C[C@H](O)CCN1c1ncc(C(F)(F)F)cc1NC(=O)c1ccc(Br)o1 [Compound 109] | 746 nM
34 | O=C(Nc1cc(C(F)(F)F)cnc1N1CCC(O)CC1)c1ccc(-c2cnccn2)o1 [Compound 074, N-(2-(4-hydroxypiperidin-1-yl)-5-(trifluoromethyl)pyridin-3-yl)-5-(pyrazin-2-yl) furan-2-carboxamide] | 641 nM
35 | O=C(Nc1cc(C(F)(F)F)cnc1N1CCC(O)CC1)c1ccc(-c2ccncc2)o1 [Compound 004, N-(2-(4-hydroxypiperidin-1-yl)-5-(trifluoromethyl)pyridin-3-yl)-5-(pyridine-4-yl) furan-2-carboxamide] | 79 nM
36 | CC1(O)CCCN(c2ncc(C(F)(F)F)cc2NC(=O)c2ccc(C3CCOCC3)o2)CC1 (stereo not shown) [Compound 055] | 45.1 nM
37 | CC(=O)OC1CCN(c2ncc(C3CC3)cc2NC(=O)c2ccc(-c3ccncc3)o2)CC1 [Compound 033, 1-(5-cyclopropyl-3-(5-(pyridin-4-yl)furan-2-carboxamido)pyridin-2-yl) piperidin-4-yl acetate] | 202 nM
38 | CC1C[C@@H](O)CCN1c1ncc(C(F)(F)F)cc1NC(=O)c1ccc(-c2ccncc2)o1 (stereo in doubt) [Compound 080, N-(2-((2S,4S)-4-hydroxy-2-methylpiperidin-1-yl)-5-(trifluoromethyl)pyridin-3-yl)-5-(pyridin-4-yl) furan-2-carboxamide] | 344 nM
39 | O=C(Nc1cc(C2CC2)cnc1N1CCc2[nH]ncc2C1)c1ccc(-c2cn[nH]c2)o1 [Compound 121] | > 30000 nM
40 | O=C(Nc1cc(C(F)(F)F)cnc1N1CCC(O)CC1)c1ccc(F)cn1 [Compound 089] | 878 nM
41 | O=C(Nc1cc(C(F)(F)F)cnc1N1CCC(O)(C(F)(F)F)CC1)c1ccc(C2CCOCC2)o1 [Compound 069] | 63.7 nM
42 | C[C@@H]1C[C@H](O)CCN1c1ncc(C(F)(F)F)cc1NC(=O)c1ccc(-c2cc(N)nc(N)c2)o1 [Compound 133] | > 30000 nM
43 | O=C(Nc1cc(C2CC2)cnc1N1CCC(O)CC1)c1ccc(-c2cn[nH]c2)cn1 [Compound 125] | > 30000 nM
44 | O=C(Nc1cc(C(F)(F)F)cnc1N1CCC(O)CC1)c1ccc(C2CCOCC2)o1 [Compound 005] | 41.9 nM
45 | O=C(Nc1cc(C(F)(F)F)cnc1N1CCS(=O)(=O)CC1)c1ccc(C2CCOCC2)o1 [Compound 042] | > 30000 nM
46 | C[C@@H]1C[C@@H](O)CCN1c1ncc(C(F)(F)F)cc1NC(=O)c1ccc(Br)o1 [Compound 107, 5-bromo-N-[2-[(2R,4S)-4-hydroxy-2-methyl-1-piperidyl]-5-(trifluoromethyl)-3-pyridyl]furan-2-carboxamide] | 746 nM
